Data reported in US6964966B2, “Generation triple-targeting, chiral, broad-spectrum antimicrobial 7-substituted piperidino-quinolone carboxylic acid derivatives, their preparation, compositions and use as medicaments” (Wockhardt Limited, priority 2001, dated 2005).
Converted amounts (≈) assume the structure as drawn. Read-outs that look alike come from different tables or passages of the source.

What was measured:
[1] = test system: Fluoroquinolone Sensitive Strains; test: In-vitro antimicrobial test, MIC by two-fold serial agar dilution (NCCLS): fluoroquinolone sensitive strains (Table 17); assay type: cell-based
Experimental: (§1) The test method was in accordance with the standard NCCLS protocol (Methods for Dilution Antimicrobial Susceptibility Tests for Bacteria that grow Aerobicially, Approved Standards, M7-A5, Fifth Edition, January 2000).
(§2) The antibacterial activities (minimum inhibitory concentration: MIC, mcg/ml) were determined by using the two-fold serial agar dilution method recommended by NCCLS. The media used for preculture and main culture were Tryptic Soya broth (Difco) and Mueller Hinton medium (Difco), respectively. The Mueller Hinton agar was supplemented with 5% sheep blood for streptococci. Overnight cultures were diluted with buffered saline (pH 7.2) to the final cell density of 5×10^6-10^7 CFU/ml, and each bacterial suspension was applied with a replicator (Denley's multipoint inoculator, UK) onto a series of Mueller-Hinton agar plates containing antibacterial agents at various concentrations. Final inoculum was approximately 10^4 CFU/spot. The plates were incubated for 18 hrs at 37° C. The MIC was defined as the lowest concentration of an antibacterial agent that inhibits the development of visible microbial growth on agar.

[2] = test system: Fluoroquinolone-Resistant Strains; test: In-vitro antimicrobial test, MIC by agar dilution (NCCLS): fluoroquinolone-resistant strains (Table 18); assay type: cell-based
Experimental: as §1, §2

[3] = Phototoxicity, oral dose and UVA exposure, mice; settings: UVA 4 hours for 4 consecutive days, dose causing ear erythema and oedema
Experimental: The stock solutions for different doses were prepared freshly on the day of experimentation. Appropriate concentration of each dose was chosen to give a constant dosage volume of 0.3-0.4 ml/20 g body weight of mouse. The treated mice were exposed to UVA light source immediately after dosing for 4 hours and for 4 consecutive days. The mean light intensity in the UVA chamber was adjusted to 0.9-1.2 mW/cm^2. The total irradiation dose was approximately 18 Joules/cm^2/day. A phototoxic dose is one which causes ear erythema and oeadema.

[4] = test system: Multidrug-Resistant (MDR) Pneumococcal Infections; test: In-vivo antimicrobial test: systemic infection model (mouse septicemia), oral ED50 (Table 22); design: species or system Swiss mice; settings: oral 1 hour and 5 hours post-infection, survival on day 7, strain resistant to β-lactams, macrolides and fluoroquinolones
Experimental: The in vivo efficacy was studied through mouse septicemia model of infection in Swiss male and female mice (4 weeks old, 20+2 g weight) using 6 animals in each group. Infective organisms were inoculated intraperitonially. Compound were administered by oral route 1 hour and 5 hours post-infection. […] Appropriate comparators were included in the study.

[5] = test system: V79 (Chinese Hamster Lung); test: Cytotoxicity test (Alamar blue), V79 cells (Table 23); assay type: cell-based; settings: minimum drug concentration inhibiting Alamar blue color change, 3 hrs drug exposure, then 96 hrs incubation
Experimental: (§3) Compounds were evaluated for their cytotoxic potential against two […] viz. […] Freshly grown cells were distributed in microtiter plates at a cell density of 10^5-10^6 cells/well and allowed to adhere and form monolayer by incubating the microtiter plate at 37° C. for 24 hrs. […] Following 3 hrs. of drug exposure, cells were washed with D-MEM and incubated further for 96 hrs. Cytotoxic effects of drugs were monitored through daily microscopic observation and by ascertaining the metabolic status through redox indicator Alamar blue. Healthy actively metabolising cells bring about colour change of Alamar blue from blue to pink within an overnight incubation. Cytotoxic drugs inhibit this reaction resulting into blue coloured wells. Minimum drug concentration inhibiting Alamar blue color change i.e. resulting into blue coloured wells for a given drug is considered cytotoxic concentration.

J 744 (mouse macrophage) = test: Cytotoxicity test (Alamar blue), J 744 cells (Table 23); assay type: cell-based; settings: minimum drug concentration inhibiting Alamar blue color change; 3 hrs drug exposure, then 96 hrs incubation; J 744 mouse macrophage cells
Experimental: as §3

[6] = test system: Trovafloxacin-Resistant and Vancomycin-Resistant Enterococci; test: In-vitro antimicrobial test, MIC by agar dilution (NCCLS): enterococci (Table 19); assay type: cell-based; settings: for MIC: read-out: MIC, V R E 336
Source text: The comparative antimicrobial activity of representative compounds of the invention and reference compounds against various sensitive and resistant microorganisms is given in Tables 17 to 20. The test method was in accordance with the standard NCCLS protocol (Methods for Dilution Antimicrobial Susceptibility Tests for Bacteria that grow Aerobicially, Approved Standards, M7-A5, Fifth Edition, January 2000).
as §2

[7] = test system: Clinical Isolate MRSA 5076 with Mutations in DNA Gyrase and Topoisomerase IV as well as bearing an Efflux Pump; assay type: cell-based
Experimental: as §1, §2

MRSA 5027 = assay type: cell-based
[8] = Enterococcus faecalis, ATCC29212, E. faecalis ATCC 29212, read-out: MIC, E. faecalis ATCC 29212
[9] = vancomycin-resistant Enterococcus faecium 336

| Structure (SMILES) | MIC, E. coli ATCC 25922 [1] | MIC, Cipro^R S. sanguis 941 [2] | MIC, FQ^R S. pneumoniae 718 [2] | MIC, MRSA 032 [2] | phototoxic dose [3] | ED50 p.o. MDR S. pneumoniae 718 [4] | also measured |
| --- | --- | --- | --- | --- | --- | --- | --- |
| COc1c(N2CCC(N)C(C)(C)C2)c(F)cc2c(=O)c(C(=O)O)cn(C3CC3)c12 (single isomer, unassigned; (-)) [Compound 20, (−)-1-Cyclopropyl-6-fluoro-1,4-dihydro-8-mehtoxy-7-(4-amino-3,3-dimethyl-1-piperidinyl)-4-oxo-quinoline-3-carboxylic acid] | 0.2 µg/mL (≈ 0.496 µM) | 0.4 µg/mL (≈ 0.991 µM) | 0.8 µg/mL (≈ 1.98 µM) | 0.8 µg/mL (≈ 1.98 µM) | greater than 500 mg/kg | 50 mg/kg |  |
| Cc1c(N2CC[C@@H](O)[C@H](C)C2)c(F)cc2c(=O)c(C(=O)O)cn(C3CC3)c12 (relative stereo) [Compound 86, trans-1-Cyclopropyl-6-fluoro-8-methyl-7-(4-hydroxy-3-methyl-1-piperidinyl)-1,4-dihydro-4-oxo-quinoline-3-carboxylic acid] |  |  |  |  |  |  | MIC [1, 8]: 0.05 µg/mL (≈ 0.134 µM); Cytotoxic concentration, V 79 CHL [5]: >1000 µg/mL; melting point: 214 to 216 °C; Cytotoxic concentration, J 744 Macrophage (J 744 (mouse macrophage)): >1000 µg/mL; MIC [6, 9]: 3.12 µg/mL (≈ 8.33 µM); MIC, MRSA 5076 + efflux inhibitor reserpine [7]: 0.2 µg/mL |
| COc1c(N2CCC(N)C(C)(C)C2)c(F)cc2c(=O)c(C(=O)O)cn(C3CC3)c12 (single isomer, unassigned; (+)) [Compound 19, (+)-1-Cyclopropyl-6-fluoro-1,4-dihydro-8-mehtoxy-7-(4-amino-3,3-dimethyl-1-piperidinyl)-4-oxo-quinoline-3-carboxylic acid] | 0.2 µg/mL (≈ 0.496 µM) | 0.2 µg/mL (≈ 0.496 µM) | 0.4 µg/mL (≈ 0.991 µM) | 0.8 µg/mL (≈ 1.98 µM) | greater than 500 mg/kg | 20 mg/kg | MIC, Cipro^R S. mitis 938 [2]: 0.8 µg/mL (≈ 1.98 µM) |
| Cc1c(N2CC[C@H](O)[C@H](C)C2)c(F)cc2c(=O)c(C(=O)O)cn(C3CC3)c12 (relative stereo) [Compound 85, cis-1-Cyclopropyl-6-fluoro-8-methyl-7-(4-hydroxy-3-methyl-1-piperidinyl)-1,4-dihydro-4-oxo-quinoline-3-carboxylic acid] |  |  |  |  |  |  | MIC [1, 8]: 0.1 µg/mL (≈ 0.267 µM); MIC ([1]; S. sanguis ATCC 10556 (Viridans Streptococci), read-out: MIC, S. sanguis ATCC 10556): 0.025 µg/mL (≈ 0.0668 µM); Cytotoxic concentration, V 79 CHL [5]: >1000 µg/mL; Cytotoxic concentration, J 744 Macrophage (J 744 (mouse macrophage)): >1000 µg/mL; MIC [6, 9]: 3.12 µg/mL (≈ 8.33 µM) |
| C[C@@H]1CN(c2c(F)c(N)c3c(=O)c(C(=O)O)cn(C4CC4)c3c2F)C[C@H](C)N1 [sparfloxacin, reference compound] |  |  |  |  | 25 mg/kg |  |  |
| Cc1c(N2CCC(O)C(C)C2)c(F)cc2c(=O)c(C(=O)O)cn(C3CC3)c12 (mixture of isomers) [Compound 84, cis/trans-1-Cyclopropyl-6-fluoro-8-methyl-7-(4-hydroxy-3-methyl-1-piperidinyl)-1,4-dihydro-4-oxo-quinoline-3-carboxylic acid] | 0.2 µg/mL | 0.4 µg/mL | 0.8 µg/mL | 0.2 µg/mL |  |  | MIC, E. faecalis ATCC 29212 ([1]; E. faecalis ATCC 29212): 0.05 µg/mL; MIC, MSSA ATCC 25923 ([1]; MSSA ATCC 25923): 0.003 µg/mL; MIC, P. aeruginosa 27853 ([1]; P. aeruginosa 27853): 3.12 µg/mL; MIC, S. pneumoniae ATCC 49619 ([1]; S. pneumoniae ATCC 49619): 0.025 µg/mL; MIC, S. sanguis ATCC 10556 ([1]; S. sanguis ATCC 10556 (Viridans Streptococci)): 0.05 µg/mL; MIC, Cipro^R S. mitis 938 [2]: 0.4 µg/mL; MIC, Trova-Resist MRSE 110 ([6]; Trovafloxacin-resistant methicillin-resistant S. epidermidis 110): 0.4 µg/mL; MIC, V R E 336 [6, 9]: 3.12 µg/mL |
| COc1c(N2CCC(N)C(C)(C)C2)c(F)cc2c(=O)c(C(=O)O)cn(C3CC3)c12 (racemic) [Compound 18, (±)-1-Cyclopropyl-6-fluoro-1,4-dihydro-8-mehtoxy-7-(4-amino-3,3-dimethyl-1-piperidinyl)-4-oxo-quinoline-3-carboxylic acid] | 0.2 µg/mL (≈ 0.496 µM) | 0.4 µg/mL (≈ 0.991 µM) | 0.8 µg/mL (≈ 1.98 µM) | 0.8 µg/mL (≈ 1.98 µM) | greater than 500 mg/kg | 30 mg/kg | MIC against MRSA 5027 after 10 passage in drug containing medium (MRSA 5027; after 10 passages): 0.4 µg/mL (≈ 0.991 µM); MIC against MRSA 5027, initially (MRSA 5027; before passages in drug-containing medium): 0.4 µg/mL (≈ 0.991 µM) |
| COc1c(N2CCC(NC(=O)OC(C)(C)C)C(C)(C)C2)c(F)cc2c(=O)c(C(=O)O)cn(C3CC3)c12 (stereo not shown) [Compound 23, 1-Cyclopropyl-6-fluoro-1,4-dihydro-8-methoxy-7-(4-t-butyloxycarbonylamino-3,3-dimethyl-1-piperidinyl)-4-oxo-quinoline-3-carboxylic acid] |  |  |  |  |  |  | melting point: 218 to 220 °C |
